Patent US20220057378A1, “MICROBIAL MICROFLUIDIC BIOSENSOR” (priority 2015, published 2022)
Like-named read-outs stand apart in the source and are kept apart here.

Columns and labels:
[1] = system: E. coli MG1655; format: cell-based; details: for Number DE Genes: false discovery rate below 1%
Description: RNA-Seq results for promoter activation in E. coli MG1655 in response to single and multiple toxin exposures at low and high concentrations: Our analysis of the sequencing data from RNA-Seq experiments to determine candidate genes that are induced upon toxin exposure consisted of three main tasks: sequence alignment, quantification of gene expression, and identification of differentially expressed genes. Sequence alignment: Reads were aligned to the reference E. coli K-12 substr. MG1655 genome using a tolerance of at most two mismatches per alignment to protect against sequencing errors. The alignment was performed using Bowtie software, 5 which is known to be very efficient in aligning reads to a reference genome. Without being limiting, Bowtie software 5 can be used for the alignment. Those skilled in the art will appreciate that there are many such software programs for performing alignments.
Quantification of gene expression: The expression level of each gene was determined as a function of the number of aligned reads mapping to the gene. […] Additionally, we implemented our own algorithms for sequence alignment and quantification of gene expression in order to crosscheck all results.
Identification of differentially expressed genes: Finally, a set of statistical and information theory algorithms were applied in order to extract not only differentially expressed (DE) genes for each toxin with respect to the control samples (pure water) but also toxin-specific genes. DESeq is a standard tool for identifying DE genes that allowed us to select sensitive genes with differential expression between the control samples (pure water) and the cells exposed to toxin. It assumes that the number of counts for each gene across experimental replicates follows a negative binomial distribution (8, 9). We considered genes with a False Discovery Rate (FDR) lower than 1% as DE in order to ensure statistically robust DE genes. […] Additionally, genes with the largest number of counts and expression levels are preferable in order to maximize the signal-to-noise ratio. When it is not possible to find toxin-specific genes, the next generation of good candidates is formed by those genes satisfying the above properties for a small subset of toxins (multiple-toxin response). It is desirable to have single-toxin-specific genes for several of the toxins in the combination in order to determine toxin-specific multi-gene-responses by means of logical operations. […] Therefore, we have developed information theoretic measures to improve the toxin separability. The core idea of the approach is that low entropies (or highly informative genes) correspond to toxin-specific genes, while large entropies (low information) are associated with scenarios in which DE fold-changes across different toxins are similar and should be discarded.
Milestone 2.1: Expose target cells to toxins of interest over four orders of magnitude of concentration and extract RNA: Three strains of bacteria were exposed to relevant levels of all toxins and extracted RNA. The toxin exposure protocol involves first growing a culture of bacterial cells to mid-log phase (OD≤0.2). […] Finally, cellular RNA was stabilized using Qiagen RNA Protect reagent, the cells were centrifuged, and the pellet was frozen at −80° C. To investigate the cellular RNA response to toxin insult, we exposed E. coli MG1655, E. coli LABEC01, and B. subtilis 168 cells to the toxins and concentrations shown in Table 7 and extracted RNA.
Milestone 2.5: Prepare isolated RNA for Illumina sequencing using vendor provided reagents and carry out sequencing: We have prepared libraries and carried out sequencing for all toxins of interest.

[2] = system: E. coli MG1655/Pb7; assay: 8-strain chip induction (fluorescence induction ratio); format: cell-based; details: toxin at t=0, pure water at t=2 hours; arsenic 0.2, cadmium 0.05, chromium(VI) 0.5, copper 5, lead 1.8 μM
Description: An overview of the sensor can be seen in FIG. 39. In order to acquire the large amount of data required to successfully train the classifier, five replicates of the fully self-contained device prototype were built, in which the microfluidic devices are mounted and imaged using custom-designed optics as shown in some embodiments herein (Milestone 6.9). The majority of the data for this project was acquired using a novel microfluidic device capable of housing eight different bacterial strains that receive media from a shared source. […] The design was expanded to house 18 strains and we have begun taking data with this new chip to provide larger datasets to the classifier. A detailed CAD drawing of this device can be seen in FIG. 56. The 18 cell trapping regions are vacuum-loaded from 18 downstream fluidic ports. Long, serpentine channels upstream of the trapping regions serve as fluidic buffer zones to prevent the cross-contamination of strains while loading. The toxin concentration is controlled dynamically by a peristaltic pump that mixes a water/toxin combination (representing the source water stream) with a concentrated medium stock.
In each panel, the time series data for the “on-target” responding strain is plotted in bold.

[3] = system: Cd1; assay: microplate specificity test with on- and off-target heavy metals (fluorescence); format: cell-based, E. coli; details: on-target = 1, no-toxin control = 0; As 1.3, Cd 0.44, Cr(VI) 2, Cu 20, Pb 1, Hg 0.1, Co 20, Fe 500, Ni 1.7, Zn 7.6 μM
Description: (§1) Each column represents the fluorescence response of a strain to the on-target metal (normalized to “1”) and all off-target metals, where “0” represents the unchanged response for the no-toxin control.
(§2) Although the ability to sense cobalt, iron, nickel, and zinc is of secondary importance, these heavy metals were included as potential off-target inducers because they may be present in the natural water supply under test. […] This combinatorial logic was implemented in algorithms.

[4] = system: Hg3; assay: as above; format: cell-based, E. coli; details: on-target = 1, no-toxin control = 0, As 1.3, Cd 0.44, Cr(VI) 2, Cu 20, Pb 1, Hg 0.1, Co 20, Fe 500, Ni 1.7, Zn 7.6 μM
Description: as §1, §2

[5] = system: Cr5; assay: as above; format: cell-based, E. coli; details: on-target = 1, no-toxin control = 0; As 1.3, Cd 0.44, Cr(VI) 2, Cu 20, Pb 1, Hg 0.1, Co 20, Fe 500, Ni 1.7, Zn 7.6 μM
Description: as §1, §2

[6] = system: Cu1; assay: as above; format: cell-based, E. coli; details: on-target = 1, no-toxin control = 0; As 1.3, Cd 0.44, Cr(VI) 2, Cu 20, Pb 1, Hg 0.1, Co 20, Fe 500, Ni 1.7, Zn 7.6 μM
Description: as §1, §2

[7] = system: Pb2; assay: as above; format: cell-based, E. coli; details: on-target = 1, no-toxin control = 0; As 1.3, Cd 0.44, Cr(VI) 2, Cu 20, Pb 1, Hg 0.1, Co 20, Fe 500, Ni 1.7, Zn 7.6 μM
Description: as §1, §2

[8] = system: E. coli MG1655 cells; assay: batch growth curves of cells exposed to toxin around the EPA limit; format: cell-based; details: batch culture, levels around the EPA limit
Description: In determining the toxin concentrations for exposure, EPA limit was explored. […] The general strategy was to examine the cellular RNA response at toxin levels where the cells are responding specifically to the presence of the toxin without triggering a universal (and unspecific) cellular stress response.

| Molecule | response of the arsR promoter ([1]; RNA-Seq mean fold change) | Number DE Genes ([1]; high concentration) | Number DE Genes ([1]; low concentration) | GFP response of strain Pb7 [2] | fluorescence response of strain Cd1 (on-target cadmium) [3] | fluorescence response of strain Hg3 (on-target mercury) [4] | fluorescence response of strain Cr5 (on-target chromium(VI)) [5] | fluorescence response of strain Cu1 (on-target copper) [6] | fluorescence response of strain Pb2 (on-target lead) [7] | response of the zntA promoter ([1]; RNA-Seq mean fold change) | growth phase lag of cells exposed to toxin [8] | response of the recN promoter ([1]; RNA-Seq mean fold change) | response of the sulA promoter ([1]; RNA-Seq mean fold change) | response of the umuD promoter ([1]; RNA-Seq mean fold change) | fluorescence response of strain Hg3 (on-target mercury) ([4]; listed as chromium(VI)) | response of the cusC promoter ([1]; RNA-Seq mean fold change) | response of the cusR promoter ([1]; RNA-Seq mean fold change) | response of the mntH promoter ([1]; RNA-Seq mean fold change) | response of the shiA promoter ([1]; RNA-Seq mean fold change) | response of the ybiI promoter ([1]; RNA-Seq mean fold change) |
| --- | --- | --- | --- | --- | --- | --- | --- | --- | --- | --- | --- | --- | --- | --- | --- | --- | --- | --- | --- | --- |
| [As] [Arsenic] | responds specifically and monotonically to increasing concentrations | 14 | 3 | smaller response | −0.18 | 0.25 | 0.24 | −0.05 | 0.33 |  |  |  |  |  |  |  |  |  |  |  |
| [Cd] [Cadmium] |  | 38 | 132 | much larger response | 1.00 | −0.26 | −0.02 | −0.08 | 0.46 | responds monotonically to increasing concentrations |  |  |  |  |  |  |  |  |  |  |
| [Cr+6] [Chromium(VI)] |  | 377 | 270 | equal magnitude but more rapid response | 0.62 | −0.96 | 1.00 | −0.06 | 1.69 |  | exhibited this growth phase lag | only shows sensitivity to high concentrations | only shows sensitivity to high concentrations | only shows sensitivity to high concentrations | sensitive |  |  |  |  |  |
| [Cu] [Copper] |  | 77 | 110 | smaller response | −0.09 | 0.16 | −0.08 | 1.00 | −0.17 |  | delay the onset of the exponential growth phase |  |  |  |  | responds monotonically to increasing concentrations | only shows sensitivity to high concentrations |  |  |  |
| [Pb] [Lead] |  | 489 | 99 | responding | 0.06 | 0.12 | 0.01 | −0.05 | 1.00 |  |  |  |  |  |  |  |  | responds to high concentrations | responds to high concentrations | responds specifically and monotonically to increasing concentrations |
| Mercury |  | 218 | 165 |  | −0.09 | 1.00 | 0.58 | −0.05 | 1.44 |  | did not exhibit this growth phase lag |  |  |  |  |  |  |  |  |  |
